Laboratory results published in the NIST ThermoML archive (doi:10.1021/je7001013).
Numbers after ± are expanded uncertainties.

Assays:
[1] = refractive index (Na D-line) (dimensionless); xn = mol fraction of the nth substance listed; conditions: 101 kPa, Liquid
[2] = xn = mol fraction of the nth substance listed

CC[S+]([O-])CC [diethyl sulfoxide] + O
Conditions	refractive index, [1]	surface tension liquid-gas, [2] [mN/m]
298.15 K, x1 = 0.0099	1.3415 ± 0.0024	65.5 ± 3.1
298.15 K, x1 = 0.0207	–	62.5 ± 2.9
298.15 K, x1 = 0.0513	1.3735 ± 0.0016	55.4 ± 2.7
298.15 K, x1 = 0.1001	1.399 ± 0.0046	50.9 ± 2.5
298.15 K, x1 = 0.1999	1.43 ± 0.0016	46 ± 2.3
298.15 K, x1 = 0.2999	1.446 ± 0.0015	42.8 ± 2.2
298.15 K, x1 = 0.4091	1.457 ± 0.0016	–
298.15 K, x1 = 0.4908	–	40.4 ± 2.1
298.15 K, x1 = 0.5189	1.458 ± 0.0016	–
298.15 K, x1 = 0.5803	1.4605 ± 0.0016	–
298.15 K, x1 = 0.7123	1.4645 ± 0.0015	37.6 ± 2
298.15 K, x1 = 0.7741	1.466 ± 0.0016	–
303.15 K, x1 = 0.0099	1.332 ± 0.0018	64.8 ± 3
303.15 K, x1 = 0.0207	–	61.5 ± 2.9
303.15 K, x1 = 0.0513	1.3675 ± 0.0016	54.9 ± 2.7
303.15 K, x1 = 0.1001	1.373 ± 0.02	50.2 ± 2.5
303.15 K, x1 = 0.1999	1.428 ± 0.0016	45.2 ± 2.3
303.15 K, x1 = 0.2999	1.4445 ± 0.0015	42 ± 2.2
303.15 K, x1 = 0.4091	1.4555 ± 0.0016	–
303.15 K, x1 = 0.4908	–	39.8 ± 2.1
303.15 K, x1 = 0.5189	1.457 ± 0.0015	–
303.15 K, x1 = 0.5803	1.4585 ± 0.0016	–
303.15 K, x1 = 0.7123	1.463 ± 0.0015	37.1 ± 2
303.15 K, x1 = 0.7741	1.464 ± 0.0016	–
308.15 K, x1 = 0.0099	1.3315 ± 0.0015	64.1 ± 3
308.15 K, x1 = 0.0207	–	60.4 ± 2.9
308.15 K, x1 = 0.0513	1.3685 ± 0.0027	54 ± 2.6
308.15 K, x1 = 0.1001	1.372 ± 0.02	49.5 ± 2.5
308.15 K, x1 = 0.1999	1.4265 ± 0.0032	44.2 ± 2.3
308.15 K, x1 = 0.2999	1.443 ± 0.0017	41.9 ± 2.2
308.15 K, x1 = 0.4091	1.453 ± 0.0018	–
308.15 K, x1 = 0.4908	–	39.3 ± 2.1
308.15 K, x1 = 0.5189	1.455 ± 0.0016	–
308.15 K, x1 = 0.5803	1.4565 ± 0.0015	–
308.15 K, x1 = 0.7123	1.4615 ± 0.0016	37 ± 2
308.15 K, x1 = 0.7741	1.462 ± 0.0016	–
313.15 K, x1 = 0.0099	–	62.8 ± 3
313.15 K, x1 = 0.0207	–	59.3 ± 2.8
313.15 K, x1 = 0.0513	–	53.1 ± 2.6
313.15 K, x1 = 0.1001	–	48.4 ± 2.4
313.15 K, x1 = 0.1999	–	47.1 ± 2.4
313.15 K, x1 = 0.2999	–	44.3 ± 2.3
313.15 K, x1 = 0.4908	–	38.6 ± 2.1
313.15 K, x1 = 0.7123	–	36.5 ± 2
318.15 K, x1 = 0.0099	–	61.8 ± 2.9
318.15 K, x1 = 0.0207	–	58.4 ± 2.8
318.15 K, x1 = 0.0513	–	52.4 ± 2.6
318.15 K, x1 = 0.1001	–	47.7 ± 2.4
318.15 K, x1 = 0.1999	–	46.1 ± 2.3
318.15 K, x1 = 0.2999	–	43.2 ± 2.2
318.15 K, x1 = 0.4908	–	38 ± 2
318.15 K, x1 = 0.7123	–	35.7 ± 2
323.15 K, x1 = 0.0099	–	60.8 ± 2.9
323.15 K, x1 = 0.0207	–	56.8 ± 2.7
323.15 K, x1 = 0.0513	–	50.5 ± 2.5
323.15 K, x1 = 0.1001	–	46.5 ± 2.4
323.15 K, x1 = 0.1999	–	45.3 ± 2.3
323.15 K, x1 = 0.2999	–	41.6 ± 2.2
323.15 K, x1 = 0.4908	–	37.3 ± 2
323.15 K, x1 = 0.7123	–	35 ± 1.9
328.15 K, x1 = 0.0099	–	59.9 ± 2.9
328.15 K, x1 = 0.0207	–	56.4 ± 2.7
328.15 K, x1 = 0.0513	–	49.7 ± 2.5
328.15 K, x1 = 0.1001	–	45.7 ± 2.3
328.15 K, x1 = 0.1999	–	43.4 ± 2.2
328.15 K, x1 = 0.2999	–	40.7 ± 2.1
328.15 K, x1 = 0.4908	–	36.6 ± 2
328.15 K, x1 = 0.7123	–	34.4 ± 1.9

CC(C)S(=O)C(C)C [2,2'-sulfinylbispropane] + O
Conditions	refractive index, [1]	surface tension liquid-gas, [2] [mN/m]
298.15 K, x1 = 0.0087	1.3435 ± 0.0015	52.5 ± 2.6
298.15 K, x1 = 0.0197	1.353 ± 0.0015	48.8 ± 2.4
298.15 K, x1 = 0.0505	1.38 ± 0.0016	–
298.15 K, x1 = 0.0987	1.407 ± 0.0015	–
298.15 K, x1 = 0.4035	1.453 ± 0.0021	35.9 ± 2
298.15 K, x1 = 0.6002	1.46 ± 0.0015	33.9 ± 1.9
298.15 K, x1 = 0.7756	1.4625 ± 0.0015	32.6 ± 1.8
298.15 K, x1 = 0.8899	1.4635 ± 0.0015	32.2 ± 1.8
303.15 K, x1 = 0.0087	1.343 ± 0.0015	52.4 ± 2.6
303.15 K, x1 = 0.0197	1.352 ± 0.0015	48.1 ± 2.4
303.15 K, x1 = 0.0505	1.3785 ± 0.0015	42.9 ± 2.2
303.15 K, x1 = 0.0987	1.406 ± 0.0015	–
303.15 K, x1 = 0.4035	1.451 ± 0.0016	34.6 ± 1.9
303.15 K, x1 = 0.6002	1.4575 ± 0.0016	33.3 ± 1.9
303.15 K, x1 = 0.7756	1.461 ± 0.0016	32.1 ± 1.8
303.15 K, x1 = 0.8899	1.4625 ± 0.0015	31.7 ± 1.8
308.15 K, x1 = 0.0087	1.342 ± 0.0015	51.5 ± 2.5
308.15 K, x1 = 0.0197	1.3515 ± 0.0015	47.3 ± 2.4
308.15 K, x1 = 0.0505	1.3775 ± 0.0018	41.8 ± 2.2
308.15 K, x1 = 0.0987	1.404 ± 0.0016	35.1 ± 1.9
308.15 K, x1 = 0.4035	1.448 ± 0.0027	34.1 ± 1.9
308.15 K, x1 = 0.6002	1.456 ± 0.0016	32.7 ± 1.8
308.15 K, x1 = 0.7756	1.459 ± 0.0016	31.5 ± 1.8
308.15 K, x1 = 0.8899	1.4605 ± 0.0016	31.1 ± 1.8
313.15 K, x1 = 0.0087	–	50.6 ± 2.5
313.15 K, x1 = 0.0197	–	46.6 ± 2.4
313.15 K, x1 = 0.0505	–	41.2 ± 2.2
313.15 K, x1 = 0.0987	–	36 ± 2
313.15 K, x1 = 0.4035	–	33.4 ± 1.9
313.15 K, x1 = 0.6002	–	32.1 ± 1.8
313.15 K, x1 = 0.7756	–	30.9 ± 1.8
313.15 K, x1 = 0.8899	–	30.6 ± 1.8
318.15 K, x1 = 0.0087	–	49.8 ± 2.5
318.15 K, x1 = 0.0197	–	45.8 ± 2.3
318.15 K, x1 = 0.0505	–	40.6 ± 2.1
318.15 K, x1 = 0.0987	–	37 ± 2
318.15 K, x1 = 0.4035	–	32.8 ± 1.8
318.15 K, x1 = 0.6002	–	31.5 ± 1.8
318.15 K, x1 = 0.7756	–	30.3 ± 1.7
318.15 K, x1 = 0.8899	–	30 ± 1.7
323.15 K, x1 = 0.0087	–	48.9 ± 2.4
323.15 K, x1 = 0.0197	–	45 ± 2.3
323.15 K, x1 = 0.0505	–	39.9 ± 2.1
323.15 K, x1 = 0.0987	–	36.7 ± 2
323.15 K, x1 = 0.4035	–	31.8 ± 1.8
323.15 K, x1 = 0.6002	–	30.4 ± 1.8
323.15 K, x1 = 0.7756	–	29.8 ± 1.7
323.15 K, x1 = 0.8899	–	29.5 ± 1.7
328.15 K, x1 = 0.0087	–	48 ± 2.4
328.15 K, x1 = 0.0197	–	43.7 ± 2.2
328.15 K, x1 = 0.0505	–	39.7 ± 2.1
328.15 K, x1 = 0.0987	–	36.4 ± 2
328.15 K, x1 = 0.4035	–	31 ± 1.8
328.15 K, x1 = 0.6002	–	29.8 ± 1.7
328.15 K, x1 = 0.7756	–	29.3 ± 1.7
328.15 K, x1 = 0.8899	–	28.9 ± 1.7
